Columns and labels:
AKT in Jurkat cells = assay: Western blot of phosphorylated and total AKT; assay type: cell-based, human; settings: 2 μg/ml (F035 printed '2 ml'), 15 hr
Procedure: The effect of F035 on phosphorylation of AKT was analyzed as follows. Jurkat cells (5×10^6) were serum starved and exposed to F035 for 15 h and 2 h with wortmannin at 37° C. The cells were either induced with cd3XL (cd3 crosslink) or left uninduced for 10 min at 37° C. and lysed in AKT lysis buffer and the proteins were resolved on 8% SDS-PAGE gels and analyzed by western-ECL using phospho-specific AKT (Ser 473; New England Biolabs) and total AKT antibody. An assay of the effect of F035 on p70S6 kinase can be carried out similarly, but using a Phosphoplus p70S6 kinase antibody kit (New England Biolabs) for analysis of p70S6 kinase (Ser 411, thr421/ser424) phosphorylation. […] There was, however, no change in the expression of total AKT.
The expression of total and phosphorylated forms of AKT was determined by western blot analysis. Jurkat cells cultured in medium containing 0.5% FBS were treated with F035 and pure extracts D1 and G1 (2.0 μg/ml) for 15 h at 37° C. The cells were lysed in AKT Iysis buffer (20 mM Tris-HCl, 150 mM NaCI, 1 mM EDTA, 1 mM EGTA, 1% Triton X-100, 2.5 mM sodium pyrophosphate, 1 mM 8-glycerol phosphate, 1 mM Na3VO4, […], 1 mM PMSF pH 7.5). Cellular protein (40 μg) was resolved on 8% SDS-polyacrylamide gel and electrotransferred onto nitrocellulose membrane. Membranes were probed first with phosphospecific AKT (Ser 473) or AKT antibody followed by goat anti rabbit antibody conjugated to horseradish peroxidase. Proteins were detected by chemiluminescence (ECL, Amersham, Arlington Heights, Ill.).

Jurkat cells = assay: Mitochondrial membrane potential (DiOC6); assay type: cell-based, human; settings: 2 μg/ml
Procedure: Measurement of mitochondrial membrane potential (Δψm). Mitochondrial Δψm was measured as described by Zamzami, et al., 1995. After treatment with F094, avicin D, or avicin G (2 μg/ml) at 37° C, Jurkat cells were incubated with 80 nM of DiOC6 for 15 minutes at room temperature. They were then analyzed on a cytofluorometer (Facscalibar, excitation: 488 nm and emission: 552 nm).

[1] = Biological assays of purified compounds (not specified)
NF-κB in Jurkat cells = assay: EMSA of TNF-induced NF-κB activation; assay type: cell-based, human; settings: for TNF-induced NF-κB activation: Jurkat cells; for decrease in NF-κB levels: pretreatment with 2 ml (so in the source), TNF 100 pM
Procedure: Next, in order to further study the mechanism by which the active components inhibited tumor cells, the TNF-alpha induced activation of the transcription factor NF-κB was analyzed in Jurkat cells (3×10^6) which had been treated with 1-2 μg/ml of UA-BRF-004-DELEP-F035 and UA-BRF-004Pod-DELEP-F094. The study was carried out as follows: Jurkat cells were pretreated with 1-2 μg/ml of F035 or F094 for 15 h at 37° C. Cells were harvested and resuspended in 1 ml RPMI and treated with 100 pM of TNF-alpha for 30 min at 37° C. After TNF-alpha treatment, nuclear extracts were prepared according to Schreiber et al (1989). Briefly, the cells were washed with ice cold PBS and suspended in 0.4 ml of lysis buffer (10 mM HEPES, pH 7.9, 10 mM KCl, 0.1 mM EDTA, […], 0.1 mM EGTA, 1 mM dithiothreitol, 0.5 mM PMSF, 2 μg/ml of leupeptin, 2 μg/ml of aprotinin and 0.5 mg/ml benzamidine). The cells were allowed to sit on ice for 15 min and 25 μl of 10% Nonidet-40 was added to the cells. The tubes were mixed on the vortex and microcentrifuged for 30 s. The nuclear pellet was resuspended in 25 μl of ice cold nuclear extraction buffer (20 mM HEPES, pH 7.9, 0.4 M NaCl, 1 mM EDTA, 1 mM EGTA, 1 mM dithiothreitol, 1 mM PMSF, 2 μg/ml leupeptin, 2.0 μg/ml aprotinin and 0.5 mg/ml benzamidine) and tubes were incubated on ice with intermittent agitation. The nuclear extract was microcentrifuged for […] at 4° C. and supernatants were stored at −70° C.
An electrophoretic mobility shift assay was performed by incubating the nuclear extracts (7 μg of protein) with ^32P-labeled NF-κB oligonucleotides (SEQ ID NO:1; NF-κB consensus oligonucleotide; Santa Cruz Biotechnology) in presence of 0.5 μg of poly di-dc in a binding buffer (25 mM HEPES, pH 7.9, 0.5 mM EDTA, 0.5 mM dithiothreitol, 1% Nonidet P-40, 5% glycerol and 50 mM NaCl for 20 min at 37° C.) (Nabel and Baltimore, 1987; Collart et al., 1990; Hassanain et al., 1993). The DNA-protein complex formed was separated from free oligonucleotide on 5% native polyacrylamide gel using buffer containing 50 mM Tris, 200 mM glycine and 1 mM EDTA. The gel was fixed in 10% acetic acid and dried and the bands were visualized using autoradiography with intensifying screen at −70° C.
An EMSA to study the effect of crude (F035) and pure extracts D1 and G1 on TNF (Genetech Inc.) induced NF-κB was done as described earlier. Jurkat cells (1×10^6/ml) were treated with different concentrations of crude and pure extracts for 15 hr at 37° C. Next the cells were exposed to 100 pM of TNF for 15 min at 37° C. Nuclear extracts were prepared as described before. Nuclear extracts were incubated with 16 fmol ^32P-end-labeled 45-mer double-stranded NF-κB oligonucleotide from the human immunodeficiency virus long terminal repeat,
for 15 min at 37° C. in the presence of 2 μg of poly (dI-dC). The DNA protein complex was separated from free oligonucleotide on 7.5% native polyacrylamide gels. The radioactive bands from the dried gels were visualized and quantitated by a PhosphoImager (Molecular Dynamics, Sunnyvale, Calif.) using ImageQuant software.
Treatment of Cells with Monoterpene Glycosides. Jurkat cells were taken at 1×10^6/ml in complete medium and treated with 2 μg/ml of F094, monoterpene/triterpene glycoside D1, or monoterpene/triterpene glycoside G1 for 8-16 h at 37° C. At the end of the treatment, cells were washed in complete medium and counted. An equal number of viable cells was used for different experiments.
Preparation of Cytoplasmic and Nuclear Extracts. Jurkat cells (2×10^6/ml) treated with F094 or the isolated monoterpene/triterpene glycosides G1 and/or D1 were exposed to TNF (1 nM for 15 min) at 37° C. After washing the cells in cold PBS, they were suspended in 0.4 ml of cytoplasmic extraction buffer (10 mM HEPES, pH 7.9, 10 mM KCl, 0.1 mM EDTA, 0.1 mM EGTA, 1 mM DTT, 0.5 mM phenylmethylsulfonylfluoride (PMSF), 2 μg/ml of leupeptin, 2 μg/ml aprotinin, 0.5 mg/ml benzamidine) for 15 min on ice. […]

SMILES	AKT phosphorylation (AKT in Jurkat cells)	total AKT protein (AKT in Jurkat cells)	mitochondrial membrane potential (Δψm) (Jurkat cells; 16 hours)	mitochondrial membrane potential (Δψm) (Jurkat cells; up to 8 hours)	biological activity relative to other compounds [1]	potency in inhibiting TNF-induced NF-κB relative to mixture (NF-κB in Jurkat cells; Jurkat)	TNF-induced NF-κB activation (NF-κB in Jurkat cells)	decrease in TNF-induced NF-κB (NF-κB in Jurkat cells; Jurkat, 0.5 μg/ml for 16 h, TNF 1 nM)	effect of DTT (100 μM, 2 h pretreatment) on inhibition of NF-κB activation (NF-κB in Jurkat cells; Jurkat, 2 μg/ml for 8 h)	inhibition of TNF-induced NF-κB (NF-κB in Jurkat cells; Jurkat, 2 μg/ml for 16 h, TNF 1 nM)	time of maximal inhibition of TNF-induced NF-κB (NF-κB in Jurkat cells; Jurkat, 2 μg/ml, 1-16 hours, TNF 1 nM)	decrease in NF-κB levels (NF-κB in Jurkat cells; Jurkat)
C=C[C@](C)(O)CC/C=C(\C)C(=O)O[C@H]1[C@H](O)[C@@H](O)[C@H](O[C@@](C)(C=C)CC/C=C(\CO)C(=O)O[C@H]2C[C@]3(C(=O)O[C@@H]4O[C@H](CO)[C@@H](O)[C@H](O)[C@H]4O[C@@H]4O[C@@H](C)[C@H](O[C@@H]5O[C@@H](CO)[C@H](O)[C@H]5O)[C@@H](O[C@@H]5O[C@H](CO)[C@@H](O)[C@H](O)[C@H]5O)[C@H]4O)[C@H](O)C[C@]4(C)C(=CC[C@@H]5[C@@]6(C)CC[C@H](O[C@@H]7O[C@H](CO[C@@H]8O[C@H](C)[C@H](O)[C@H](O)[C@H]8O[C@@H]8OC[C@@H](O)[C@H](O)[C@H]8O)[C@@H](O)[C@H](O)[C@H]7NC(C)=O)C(C)(C)[C@@H]6CC[C@]54C)[C@@H]3CC2(C)C)O[C@@H]1C [Fraction G1]	inhibited AKT phosphorylation	inhibited	significant drop	did not produce any significant changes	more biologically active than D1	more potent than the mixture	potent inhibitors	~50%	reversed	almost complete inhibition	16 h	54%
C=C[C@](C)(O)CC/C=C(\CO)C(=O)O[C@H]1[C@H](O)[C@@H](O)[C@H](O[C@@](C)(C=C)CC/C=C(\CO)C(=O)O[C@H]2C[C@]3(C(=O)O[C@@H]4O[C@H](CO)[C@@H](O)[C@H](O)[C@H]4O[C@@H]4O[C@@H](C)[C@H](O[C@@H]5O[C@@H](CO)[C@H](O)[C@H]5O)[C@@H](O[C@@H]5O[C@H](CO)[C@@H](O)[C@H](O)[C@H]5O)[C@H]4O)[C@H](O)C[C@]4(C)C(=CC[C@@H]5[C@@]6(C)CC[C@H](O[C@@H]7O[C@H](CO[C@@H]8O[C@H](C)[C@H](O)[C@H](O)[C@H]8O[C@@H]8OC[C@@H](O)[C@H](O)[C@H]8O)[C@@H](O)[C@H](O)[C@H]7NC(C)=O)C(C)(C)[C@@H]6CC[C@]54C)[C@@H]3CC2(C)C)O[C@@H]1C [Fraction D1]	inhibited AKT phosphorylation	inhibited	significant drop	did not produce any significant changes	considerable biological activity	–	potent inhibitors	–	–	–	–	87%
